# The source made the active and inactive calls. No cut-off for these calls is given here.
# How the values were obtained:
# [1] = Cytotoxicity against rat PC12 cells assessed as induction of morphological changes at 20 uM after 48 hrs by phase contrast microscopy in absence of NGF; type: cell-based; conditions: pc-12, 48 h
# PC-12 = assay: Stimulation of NGF-induced neurite outgrowth in rat PC12 cells at 20 uM incubated for 48 hrs by phase contrast microscopy; type: functional, cell-based
# [2] = Antioxidant activity assessed as DPPH radical scavenging activity at 50 uM; type: physicochemical
# HCT-116 = assay: Cytotoxicity against human HCT116 cells at 50 uM; type: functional, cell-based
# [3] = Cytotoxicity against NF1 and p53 deficient mouse glioma cells assessed as growth inhibition at 2 ug/ml after 2 days; type: functional; conditions: Glioma cell, 48 h
# [4] = Cytotoxicity against rat PC12 cells assessed as reduction in cell viability up to 50 uM by MTT assay; type: cell-based; conditions: pc-12
# [5] = molecular target: T1, Peroxisome proliferator-activated receptor (Homo sapiens, UniProt P37231+Q07869+Q03181); assay: Activation of PPAR (unknown origin) transactivation expressed in human HepG2 cells assessed as increase in transcriptional activity after 20 hrs by PPRE-luciferase reporter gene assay; type: cell-based
# T1 sequence (P37231 whole entry): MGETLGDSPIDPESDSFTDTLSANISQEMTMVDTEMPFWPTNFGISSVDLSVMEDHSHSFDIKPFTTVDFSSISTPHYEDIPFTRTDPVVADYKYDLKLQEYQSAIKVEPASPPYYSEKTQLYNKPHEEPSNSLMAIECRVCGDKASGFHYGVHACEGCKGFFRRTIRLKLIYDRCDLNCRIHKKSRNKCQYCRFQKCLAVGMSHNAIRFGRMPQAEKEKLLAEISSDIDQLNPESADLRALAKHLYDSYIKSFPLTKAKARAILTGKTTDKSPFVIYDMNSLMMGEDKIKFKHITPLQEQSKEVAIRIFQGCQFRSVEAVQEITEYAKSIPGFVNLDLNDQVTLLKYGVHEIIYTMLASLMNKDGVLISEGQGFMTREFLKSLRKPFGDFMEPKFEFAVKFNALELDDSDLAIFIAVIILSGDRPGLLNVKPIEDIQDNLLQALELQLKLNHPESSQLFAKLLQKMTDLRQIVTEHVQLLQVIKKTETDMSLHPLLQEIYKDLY
# T1 sequence (Q07869 whole entry): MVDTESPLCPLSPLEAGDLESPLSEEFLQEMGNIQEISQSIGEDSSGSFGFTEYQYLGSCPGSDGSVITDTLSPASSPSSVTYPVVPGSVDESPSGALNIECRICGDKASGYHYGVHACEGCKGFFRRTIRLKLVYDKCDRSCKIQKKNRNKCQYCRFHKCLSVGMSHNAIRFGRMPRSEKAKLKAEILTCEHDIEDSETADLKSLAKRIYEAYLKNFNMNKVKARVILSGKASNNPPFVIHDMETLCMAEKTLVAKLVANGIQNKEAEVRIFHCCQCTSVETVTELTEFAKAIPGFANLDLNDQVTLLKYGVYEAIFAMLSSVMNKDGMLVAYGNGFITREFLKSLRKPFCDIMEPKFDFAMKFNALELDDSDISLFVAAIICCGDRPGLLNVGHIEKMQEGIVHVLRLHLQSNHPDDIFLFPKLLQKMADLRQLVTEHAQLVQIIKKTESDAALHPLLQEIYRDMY
# T1 sequence (Q03181 whole entry): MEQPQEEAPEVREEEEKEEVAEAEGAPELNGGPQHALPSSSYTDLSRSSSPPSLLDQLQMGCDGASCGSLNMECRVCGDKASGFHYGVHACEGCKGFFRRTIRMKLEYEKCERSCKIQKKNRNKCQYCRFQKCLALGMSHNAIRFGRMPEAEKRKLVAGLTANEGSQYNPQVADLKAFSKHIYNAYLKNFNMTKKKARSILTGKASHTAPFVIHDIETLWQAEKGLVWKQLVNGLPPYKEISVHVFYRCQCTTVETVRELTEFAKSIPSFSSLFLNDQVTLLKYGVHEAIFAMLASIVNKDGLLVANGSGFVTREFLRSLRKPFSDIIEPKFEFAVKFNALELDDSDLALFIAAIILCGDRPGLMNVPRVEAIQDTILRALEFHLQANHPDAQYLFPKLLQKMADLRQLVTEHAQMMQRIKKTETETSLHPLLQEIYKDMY
SMILES,Activity [2],EC50 [5],Activity [1],Activity (PC-12),Activity (HCT-116),inhibition at 2 µg/mL [3],Activity [4]
C[C@H](O)[C@H](O)/C=C/C=C\CC/C=C/C(=O)NCC(C)(C)O,Not Active,–,Non-toxic,Active,inactive,31%,Non-toxic
CCOC(/C=C/C=C/C(C)O)CC/C=C/C(=O)NCC(C)(C)O (centres undefined),–,–,–,–,–,–,Non-toxic
CC(O)/C=C/C=C/C(=O)C/C=C/C(=O)NCC(C)(C)O (centres undefined),Not Active,–,–,Active,inactive,–,Non-toxic
CC(O)/C=C/C=C/C(=O)CC/C=C/C(=O)NCC(C)(C)O (centres undefined),–,–,–,–,–,–,Non-toxic
C[C@H](O)[C@@H](O)/C=C/C=C/CC/C=C/C(=O)NCC(C)(C)O,Not Active,12 µM,Non-toxic,Active,inactive,56%,Non-toxic

# Now from value to compound, other results behind:
Activity [2],EC50 [5],SMILES,Activity [1],Activity (PC-12),Activity (HCT-116),inhibition at 2 µg/mL [3],Activity [4]
Not Active,–,CCOC(C)/C=C/C=C/C(O)CC/C=C/C(=O)NCC(C)(C)O (centres undefined),–,Active,inactive,–,Non-toxic
Not Active,–,CC(O)/C=C/C=C/C(O)CC/C=C/C(=O)NCC(C)(C)O (centres undefined),–,Active,inactive,41%,Non-toxic
Not Active,19.1 µM,CC(=O)/C=C/C=C/C(O)CC/C=C/C(=O)NCC(C)(C)O (centres undefined),–,Active,inactive,52%,Non-toxic
